Patent US11339171B2, “MDM2 inhibitors” (Gan & Lee Pharmaceuticals, priority 2017, dated 2022)

Tests used:
[1] = test system: human osteosarcoma cell line SJSA-1; assay: Inhibition of proliferation of human osteosarcoma cell line SJSA-1 (DAPI staining, In Cell Analyzer); conditions: Homo sapiens, SJSA-1, 72 h, read-out: IC50 (nM), inhibitory activity on proliferation of human osteosarcoma cell line SJSA-1, SJSA-1, incubated 72 h
MDM2 = biological target: T1, MDM2 (Homo sapiens, UniProt Q00987); assay: Inhibition test of MDM2-P53 (GST-MDM2, Biotin-P53, Anti-GST-Tb, SA-XL665); type: binding
T1 construct: made in house
Summary of the method: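 Binding was measured by TR-FRET with GST-MDM2 at 4 nM final in PBS with 0.1% BSA, 5 mM DTT and 1 mM AEBSF. Compounds were tested as twelve-point 5-fold dilutions and incubated with the detection mix for 90 min at 25 °C with shaking before plate-reader reading and curve fitting.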

T1 sequence (Q00987 whole entry): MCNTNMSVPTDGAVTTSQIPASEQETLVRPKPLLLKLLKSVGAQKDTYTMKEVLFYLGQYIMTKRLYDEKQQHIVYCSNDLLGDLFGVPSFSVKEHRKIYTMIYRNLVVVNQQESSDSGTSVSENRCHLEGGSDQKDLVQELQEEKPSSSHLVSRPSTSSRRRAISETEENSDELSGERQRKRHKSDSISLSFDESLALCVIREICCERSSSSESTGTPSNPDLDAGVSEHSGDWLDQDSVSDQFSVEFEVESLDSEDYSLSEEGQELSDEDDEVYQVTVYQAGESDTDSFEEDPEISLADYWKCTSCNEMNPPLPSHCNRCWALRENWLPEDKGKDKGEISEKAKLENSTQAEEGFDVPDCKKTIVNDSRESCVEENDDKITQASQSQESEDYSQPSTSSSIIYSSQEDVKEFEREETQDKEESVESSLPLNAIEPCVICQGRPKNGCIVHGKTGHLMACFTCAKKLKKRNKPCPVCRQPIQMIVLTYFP

CNc1ccc(-c2nc3c(n2C(C)C)[C@]2(C(=O)Nc4cc(Cl)ccc42)N(c2cc(Cl)ccc2C)C3=O)c(OC)c1 [Example R-25, (R)-6-chloro-5′-(5-chloro-2-methylphenyl)-3′-isopropyl-2′-(2-methoxy-4-(methylamine)phenyl)-3′H-spiro[dihydroindole-3,4′-pyrrolo[3,4-d]imidazole]-2,6′(5′H)-dione]
IC50 [1]: 265 nM | IC50 (MDM2): 51.9 nM

CCn1c(-c2cnc(OC)nc2OC)nc2c1[C@]1(C(=O)Nc3cc(Cl)ccc31)N(c1cc(Cl)ccc1C)C2=O [Example R-26, (R)-6-chloro-5′-(5-chloro-2-methylphenyl)-2′-(2,4-dimethoxypyrimidin-5-yl)-3′-ethyl-3′H-spiro[dihydroindole-3,4′-pyrrolo[3,4-d]imidazole]-2,6′(5′H)-dione]
IC50 [1]: 3650 nM | IC50 (MDM2): 236 nM

COc1ccc(C(N)=O)cc1-c1nc2c(n1C(C)C)[C@]1(C(=O)Nc3cc(Cl)ccc31)N(c1cc(Cl)ccc1C)C2=O [Example R-29, (R)-3-(6-chloro-5′-(5-chloro-2-methylphenyl)-3′-isopropyl-2,6′-dioxo-5′,6′-dihydro-3′H-spiro[dihydroindole-3,4′-pyrrolo[3,4-d]imidazole]-2′-yl)-4-methoxybenzamide]
IC50 [1]: 10900 nM | IC50 (MDM2): 93.6 nM

Cc1ccc(Cl)cc1N1C(=O)c2nc(-c3ccccc3OC(F)(F)F)n(C(C)C)c2[C@]12C(=O)Nc1cc(Cl)ccc12 [Example R-31, (R)-6-chloro-5′-(5-chloro-2-methylphenyl)-3′-isopropyl-2′-(2-(trifluoromethoxy)phenyl)-3′H-spiro[dihydroindole-3,4′-pyrrolo[3,4-d]imidazole]-2,6′(5′H)-dione]
IC50 [1]: 3580 nM | IC50 (MDM2): 1400 nM

COc1cc(C(C)C)ccc1-c1nc2c(n1C(C)C)[C@]1(C(=O)Nc3cc(Cl)ccc31)N(c1cc(Cl)ccc1C)C2=O [Example R-32, (R)-6-chloro-5′-(5-chloro-2-methylphenyl)-3′-isopropyl-2′-(4-isopropyl-2-methoxyphenyl)-3′H-spiro[dihydroindole-3,4′-pyrrolo[3,4-d]imidazole]-2,6′(5′H)-dione]
IC50 [1]: 8200 nM | IC50 (MDM2): 1100 nM

CCc1ccc(-c2nc3c(n2C(C)C)[C@]2(C(=O)Nc4cc(Cl)ccc42)N(c2cc(Cl)ccc2C)C3=O)c(OC)c1 [Example R-33, (R)-6-chloro-5′-(5-chloro-2-methylphenyl)-2′-(4-ethyl-2-methoxyphenyl)-3′-isopropyl-3′H-spiro[dihydroindole-3,4′-pyrrolo[3,4-d]imidazole]-2,6′(5′H)-dione]
IC50 [1]: 4890 nM | IC50 (MDM2): 592 nM

COc1cc(-c2nc3c(n2C(C)C)[C@]2(C(=O)Nc4cc(Cl)ccc42)N(c2cc(Cl)ccc2C)C3=O)c(OC)cn1 [Example R-40, (R)-6-chloro-5′-(5-chloro-2-methylphenyl)-2′-(2,5-dimethoxypyridin-4-yl)-3′-isopropyl-3′H-spiro[dihydroindole-3,4′-pyrrolo[3,4-d]imidazole]-2,6′(5′H)-dione]
IC50 [1]: 3090 nM | IC50 (MDM2): 322 nM

COc1ncc(-c2nc3c(n2C(C)C)[C@]2(C(=O)Nc4cc(Cl)ccc42)N(c2cc(Cl)cnc2C)C3=O)c(OC)n1 [Example R-42, (R)-6-chloro-5′-(5-chloro-2-methylpyridin-3-yl)-2′-(2,4-dimethoxypyrimidin-5-yl)-3′-isopropyl-3′H-spiro[dihydroindole-3,4′-pyrrolo[3,4-d]imidazole]-2,6′(5′H)-dione]
IC50 [1]: 4560 nM | IC50 (MDM2): 364 nM

COc1ncc(-c2nc3c(n2C(C)C)[C@]2(C(=O)Nc4cc(Cl)ccc42)N(c2cc(Cl)ccc2F)C3=O)c(OC)n1 [Example R-44, (R)-6-chloro-5′-(5-chloro-2-fluorophenyl)-2′-(2,4-dimethoxypyrimidin-5-yl)-3′-isopropyl-3′H-spiro[dihydroindole-3,4′-pyrrolo[3,4-d]imidazole]-2,6′(5′H)-dione]
IC50 [1]: 1330 nM | IC50 (MDM2): 51.1 nM

COc1ncc(-c2nc3c(n2C(C)C)[C@]2(C(=O)Nc4cc(Cl)ccc42)N(c2cc(F)cc(Cl)c2)C3=O)c(OC)n1 [Example R-45, (R)-6-chloro-5′-(3-chloro-5-fluorophenyl)-2′-(2,4-dimethoxypyrimidin-5-yl)-3′-isopropyl-3′H-spiro[dihydroindole-3,4′-pyrrolo[3,4-d]imidazole]-2,6′(5′H)-dione]
IC50 [1]: 4310 nM | IC50 (MDM2): 171 nM

COc1cc(CN(C)C)ccc1-c1nc2c(n1C(C)C)[C@]1(C(=O)Nc3cc(Cl)ccc31)N(c1cc(Cl)ccc1C)C2=O [Example R-47, (R)-6-chloro-5′-(5-chloro-2-methylphenyl)-2′-(4-((dimethylamino)methyl)-2-methoxyphenyl)-3′-isopropyl-3′H-spiro[dihydroindole-3,4′-pyrrolo[3,4-d]imidazole]-2,6′(5′H)-dione]
IC50 [1]: 3850 nM | IC50 (MDM2): 210 nM

COc1ncc(-c2nc3c(n2C(C)C)[C@]2(C(=O)Nc4cc(Cl)ccc42)N(c2ccc(OC)c(Cl)c2)C3=O)c(OC)n1 [Example R-48, (R)-6-chloro-5′-(3-chloro-4-methoxyphenyl)-2′-(2,4-dimethoxypyrimidin-5-yl)-3′-isopropyl-3′H-spiro[dihydroindole-3,4′-pyrrolo[3,4-d]imidazole]-2,6′(5′H)-dione]
IC50 [1]: 3630 nM | IC50 (MDM2): 196 nM

COc1cc(N)ccc1-c1nc2c(n1C(C)C)[C@]1(C(=O)Nc3cc(Cl)ccc31)N(c1cc(Cl)ccc1C)C2=O [Example R-49, (R)-2′-(4-amino-2-methoxyphenyl)-6-chloro-5′-(5-chloro-2-methylphenyl)-3′-isopropyl-3′H-spiro[dihydroindole-3,4′-pyrrolo[3,4-d]imidazole]-2,6′(5′H)-dione]
IC50 [1]: 1490 nM | IC50 (MDM2): 71.4 nM

COc1ncc(-c2cc3c(n2C(C)C)[C@]2(C(=O)Nc4cc(Cl)ccc42)N(c2cc(Cl)ccc2C)C3=O)c(OC)n1 [Example R-50, (R)-6-chloro-5′-(5-chloro-2-methylphenyl)-2′-(2,4-dimethoxypyrimidin-5-yl)-1′-isopropyl-1′H-spiro[dihydroindole-3,6′-pyrrolo[3,4-b]pyrrole]-2,4′(5′H)-dione]
IC50 [1]: 8430 nM | IC50 (MDM2): 20400 nM

COc1ncc(-c2nc3c(n2C(C)C)[C@]2(C(=O)Nc4cc(Cl)ccc42)N(c2cc(C)cc(Cl)c2)C3=O)c(OC)n1 [Example R-51, (R)-6-chloro-5′-(3-chloro-5-methylphenyl)-2′-(2,4-dimethoxypyrimidin-5-yl)-3′-isopropyl-3′H-spiro[dihydroindole-3,4′-pyrrolo[3,4-d]imidazole]-2,6′(5′H)-dione]
IC50 [1]: 9520 nM | IC50 (MDM2): 547 nM

COc1ccc(-c2nc3c(n2C(C)C)[C@]2(C(=O)Nc4cc(Cl)ccc42)N(c2cc(Cl)c(=O)n(C)c2)C3=O)c(OC)c1 [Example R-52, (R)-6-chloro-5′-(5-chloro-1-methyl-6-oxo-1,6-dihydropyridin-3-yl)-2′-(2,4-dimethoxyphenyl)-3′-isopropyl-3′H-spiro[dihydroindole-3,4′-pyrrolo[3,4-d]imidazole]-2,6′(5′H)-dione]
IC50 [1]: 22400 nM | IC50 (MDM2): 540 nM

COc1ccccc1-c1nc2c(n1C(C)C)[C@]1(C(=O)Nc3cc(Cl)ccc31)N(c1cc(Cl)c(=O)n(C)c1)C2=O [Example R-53, (R)-6-chloro-5′-(5-chloro-1-methyl-6-oxo-1,6-dihydropyridin-3-yl)-3′-isopropyl-2′-(2-methoxyphenyl)-3′H-spiro[dihydroindole-3,4′-pyrrolo[3,4-d]imidazole]-2,6′(5′H)-dione]
IC50 [1]: 77400 nM | IC50 (MDM2): 3770 nM

COc1ncc(-c2nc3c(n2C(C)C)[C@]2(C(=O)Nc4cc(Cl)ccc42)N(c2cccc(C)c2)C3=O)c(OC)n1 [Example R-55, (R)-6-chloro-2′-(2,4-dimethoxypyrimidin-5-yl)-3′-isopropyl-5′-(m-tolyl)-3′H-spiro[dihydroindole-3,4′-pyrrolo[3,4-d]imidazole]-2,6′(5′H)-dione]
IC50 [1]: 9940 nM | IC50 (MDM2): 437 nM

COc1ncc(-c2nc3c(n2C(C)C)[C@]2(C(=O)Nc4cc(Cl)ccc42)N(c2cc(C)ccc2C)C3=O)c(OC)n1 [Example R-56, (R)-6-chloro-2′-(2,4-dimethoxypyrimidin-5-yl)-5′-(2,5-dimethylphenyl)-3′-isopropyl-3′H-spiro[dihydroindole-3,4′-pyrrolo[3,4-d]imidazole]-2,6′(5′H)-dione]
IC50 [1]: 3480 nM | IC50 (MDM2): 155 nM

COc1cccc(F)c1-c1nc2c(n1C(C)C)[C@]1(C(=O)Nc3cc(Cl)ccc31)N(c1cc(Cl)ccc1C)C2=O [Example R-57, (R)-6-chloro-5′-(5-chloro-2-methylphenyl)-2′-(2-fluoro-6-methoxyphenyl)-3′-isopropyl-3′H-spiro[dihydroindole-3,4′-pyrrolo[3,4-d]imidazole]-2,6′(5′H)-dione]
IC50 [1]: 3960 nM | IC50 (MDM2): 427 nM

COc1cc(Cl)cc(N2C(=O)c3nc(-c4cnc(OC)nc4OC)n(C(C)C)c3[C@]23C(=O)Nc2cc(Cl)ccc23)c1 [Example R-58, (R)-6-chloro-5′-(3-chloro-5-methoxyphenyl)-2′-(2,4-dimethoxypyrimidin-5-yl)-3′-isopropyl-3′H-spiro[dihydroindole-3,4′-pyrrolo[3,4-d]imidazole]-2,6′(5′H)-dione]
IC50 [1]: 5890 nM | IC50 (MDM2): 1430 nM

COc1ccc(-c2nc3c(n2C(C)C)[C@]2(C(=O)Nc4cc(Cl)ccc42)N(c2cc(Cl)cnc2C)C3=O)c(OC)c1 [Example R-61, (R)-6-chloro-5′-(5-chloro-2-methylpyridin-3-yl)-2′-(2,4-dimethoxyphenyl)-3′-isopropyl-3′H-spiro[dihydroindole-3,4′-pyrrolo[3,4-d]imidazole]-2,6′(5′H)-dione]
IC50 [1]: 136 nM | IC50 (MDM2): 136 nM
